From ChEMBL document CHEMBL1144052, “Cytotoxic 3,4-secoapotirucallanes from Aaglaia argentea bark” (J Nat Prod, 1999) come the findings set out here.

Converted amounts (≈) assume the structure as drawn. The source made the active and inactive calls. The calls are words filed in the database; no cut-off is given here.

This assay has as its system KB. Description: Cytotoxicity against human KB cells. The format is functional, cell-based.
With `C/C=C(\C)[C@@H](O)C(=O)O[C@@H]1C[C@H](C(C)(C)O)[C@](C)(CCC(=O)OC)[C@H]2CC[C@]3(C)C(=CC[C@H]3[C@H]3CO[C@H](C=C(C)C)C3)[C@@]21C` [ARGENTINIC ACID C METHYL ESTER], 2 µg/mL (≈ 3.25 µM) corresponded to half-maximal inhibition (IC50).

For `CC[C@@H](C)[C@@H](O)C(=O)O[C@@H]1C[C@]2(C)C(=CC[C@H]2[C@H]2CO[C@H](C=C(C)C)C2)[C@@]2(C)[C@H]1[C@@](C)(CCC(=O)OC)[C@@H](C(C)(C)O)C[C@H]2OC(=O)[C@H](O)[C@H](C)CC` [ARGENTINIC ACID G METHYL ESTER], the IC50 (usually the concentration at which inhibition is half-maximal) was determined as 2.5 µg/mL (≈ 3.35 µM).

Regarding `COC(=O)CC[C@@]1(C)[C@@H](C(C)(C)O)C[C@@H](OC(=O)[C@H](O)C(C)C)[C@@]2(C)C3=CC[C@@H]([C@H]4CO[C@H](C=C(C)C)C4)[C@]3(C)CC[C@H]12` [ARGENTINIC ACID B METHYL ESTER], it took 2 µg/mL (≈ 3.32 µM) to reach half-maximal inhibition (IC50).

`C/C=C(\C)[C@@H](O)C(=O)O[C@@H]1C[C@H](C(C)(C)O)[C@](C)(CCC(=O)OC)[C@H]2[C@H](OC(=O)[C@H](O)[C@H](C)CC)C[C@]3(C)C(=CC[C@H]3[C@H]3CO[C@H](C=C(C)C)C3)[C@@]21C` [ARGENTINIC ACID D METHYL ESTER] showed an IC50 of 1 µg/mL (≈ 1.34 µM).

`CC[C@@H](C)[C@@H](O)C(=O)O[C@@H]1C[C@]2(C)C(=CC[C@H]2[C@H]2CO[C@H](C=C(C)C)C2)[C@@]2(C)[C@H]1[C@@](C)(CCC(=O)OC)[C@@H](C(C)(C)O)C[C@H]2OC(=O)[C@H](O)C(C)C` [ARGENTINIC ACID F METHYL ESTER] displayed an IC50 of 2 µg/mL (≈ 2.73 µM). Compared with the last compound, the IC50 is about 2-fold higher.

On to `C/C=C(/C)[C@@H](O)C(=O)O[C@@H]1C[C@H](C(C)(C)O)[C@](C)(CCC(=O)O)[C@H]2[C@H](OC(=O)[C@H](O)/C(C)=C/C)C[C@]3(C)C(=CC[C@H]3[C@H]3CO[C@H](C=C(C)C)C3)[C@@]21C`, for which the outcome was inactive.

As for `CC(C)=C[C@@H]1C[C@@H]([C@@H]2CC=C3[C@@]4(C)[C@H](CC[C@]32C)[C@@](C)(CCC(=O)O)[C@@H](C(C)(C)O)C[C@H]4OC(=O)[C@H](O)C(C)C)CO1`, the result was inactive.

As for `C/C=C(\C)[C@@H](O)C(=O)O[C@@H]1C[C@H](C(C)(C)O)[C@](C)(CCC(=O)OC)[C@H]2[C@H](OC(=O)[C@H](O)C(C)C)C[C@]3(C)C(=CC[C@H]3[C@H]3CO[C@H](C=C(C)C)C3)[C@@]21C` [ARGENTINIC ACID E METHYL ESTER], it took 3.5 µg/mL (≈ 4.79 µM) to reach half-maximal inhibition (IC50).

As to `C/C=C(/C)[C@@H](O)C(=O)O[C@@H]1C[C@H](C(C)(C)O)[C@](C)(CCC(=O)OC)[C@H]2[C@H](OC(=O)[C@H](O)/C(C)=C/C)C[C@]3(C)C(=CC[C@H]3[C@H]3CO[C@H](C=C(C)C)C3)[C@@]21C` [ARGENTINIC ACID H METHYL ESTER], the IC50 stood at 2 µg/mL (≈ 2.69 µM).

With `CC[C@@H](C)[C@@H](O)C(=O)O[C@@H]1C[C@]2(C)C(=CC[C@H]2[C@H]2CO[C@H](C=C(C)C)C2)[C@@]2(C)[C@H]1[C@@](C)(CCC(=O)O)[C@@H](C(C)(C)O)C[C@H]2OC(=O)[C@H](O)C(C)C`, the result was inactive.

On to `C/C=C(\C)[C@@H](O)C(=O)O[C@@H]1C[C@H](C(C)(C)O)[C@](C)(CCC(=O)O)[C@H]2[C@H](OC(=O)[C@H](O)[C@H](C)CC)C[C@]3(C)C(=CC[C@H]3[C@H]3CO[C@H](C=C(C)C)C3)[C@@]21C`, for which the result was inactive.

In the case of `C/C=C(\C)[C@@H](O)C(=O)O[C@@H]1C[C@H](C(C)(C)O)[C@](C)(CCC(=O)O)[C@H]2CC[C@]3(C)C(=CC[C@H]3[C@H]3CO[C@H](C=C(C)C)C3)[C@@]21C`, the result was inactive.

With `C/C=C(\C)[C@@H](O)C(=O)O[C@@H]1C[C@H](C(C)(C)O)[C@](C)(CCC(=O)O)[C@H]2[C@H](OC(=O)[C@H](O)C(C)C)C[C@]3(C)C(=CC[C@H]3[C@H]3CO[C@H](C=C(C)C)C3)[C@@]21C`, the result was inactive.

For the compound `CC[C@@H](C)[C@@H](O)C(=O)O[C@@H]1C[C@H](C(C)(C)O)[C@](C)(CCC(=O)O)[C@H]2CC[C@]3(C)C(=CC[C@H]3[C@H]3CO[C@H](C=C(C)C)C3)[C@@]21C`, the result was inactive.

On to `CC[C@@H](C)[C@@H](O)C(=O)O[C@@H]1C[C@]2(C)C(=CC[C@H]2[C@H]2CO[C@H](C=C(C)C)C2)[C@@]2(C)[C@H]1[C@@](C)(CCC(=O)O)[C@@H](C(C)(C)O)C[C@H]2OC(=O)[C@H](O)[C@H](C)CC`, for which the outcome was inactive.

Take `CC[C@@H](C)[C@@H](O)C(=O)O[C@@H]1C[C@H](C(C)(C)O)[C@](C)(CCC(=O)OC)[C@H]2CC[C@]3(C)C(=CC[C@H]3[C@H]3CO[C@H](C=C(C)C)C3)[C@@]21C` [ARGENTINIC ACID A METHYL ESTER]: the IC50 is 2 µg/mL (≈ 3.24 µM).
